The source of these data is PubChem BioAssay AID652285 (Sanford-Burnham Center for Chemical Genomics, 2013).

The target of the assay is COP9 signalosome complex subunit 5 (Homo sapiens) (UniProt Q92905). In words: Csn5 deneddylase inhibition by analogues, SAR follow-up, selectivity assay for RPN11 inhibitor project, biochemical, fluorescence polarization, Cul-Nedd8-OG substrate (AID 652285). Conditions: Csn5 deneddylation of SCF-Nedd8-OG.

Values joined by “and” are separate entries in the source; they are usually repeats but may differ in a detail not shown here. Identical values can stand only once. Active and inactive are the calls of the source.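 How the source made its calls: active means IC50 at or below 60 µM; inactive means the rest.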

COP9 signalosome complex subunit 5 (Homo sapiens), sequence (Q92905 whole entry, looked up, one chain of several): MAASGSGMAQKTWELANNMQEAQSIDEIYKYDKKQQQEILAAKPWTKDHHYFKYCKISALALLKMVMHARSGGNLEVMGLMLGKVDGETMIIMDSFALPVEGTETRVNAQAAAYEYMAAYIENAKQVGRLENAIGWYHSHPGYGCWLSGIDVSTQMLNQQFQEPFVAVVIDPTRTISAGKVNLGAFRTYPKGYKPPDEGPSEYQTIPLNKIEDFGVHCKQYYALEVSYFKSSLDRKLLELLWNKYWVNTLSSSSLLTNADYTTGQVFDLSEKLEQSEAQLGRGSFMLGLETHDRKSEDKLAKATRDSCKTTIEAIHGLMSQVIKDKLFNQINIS

`O=C(Sc1cccc2cccnc12)c1ccc(C(F)(F)F)cc1`: the IC50 is 6.26 µM.

For the molecule `CCCc1ccc(C(=O)Sc2cccc3cccnc23)cc1`, the IC50 was 10.7 µM.

For `O=C(Sc1cccc2cccnc12)c1ccc(F)c(F)c1`, the half-inhibitory concentration (IC50) is 5.36 µM.

Regarding `C[C@@H](C(=O)O)N(C)C(=O)c1cnc2c(SSc3cccc4cc(C(=O)N(C)[C@@H](C)C(=O)O)cnc34)cccc2c1`, the half-inhibitory concentration (IC50) was 16.6 µM.

`O=C(Sc1cccc2cccnc12)c1ccccc1Cl`: the IC50 was 14.1 µM.

On to `COc1ccc(C(=O)Sc2cccc3cccnc23)cc1`, for which the 50% inhibitory concentration (IC50) was 9.61 µM.

Consider `Cc1ccc(C(=O)Sc2cccc3cccnc23)cc1`, for which the IC50 was > 95 µM (inactive).

With `O=C(Sc1cccc2cccnc12)c1ccc([N+](=O)[O-])cc1`, the IC50 is 20.2 µM.

As for `N#Cc1cccc(C(=O)Sc2cccc3cccnc23)c1`, the IC50 result was “inactive”.

Regarding `O=C(Sc1cccc2cccnc12)c1ccc(F)cc1`, the 50% inhibitory concentration (IC50) was 4.3 µM.

For `N#Cc1ccc(C(=O)Sc2cccc3cccnc23)cc1`, the IC50 is > 95 µM (inactive).

With `O=C(Sc1cccc2cccnc12)c1c(Cl)cccc1Cl`, the half-maximal inhibitory concentration (IC50) was 3.95 µM.

Turning to `COc1ccc(C(=O)Sc2cccc3cccnc23)cc1F`, the IC50 is 6.5 µM.

With `O=C(Sc1cccc2cccnc12)c1ccccc1`, the IC50 is 4.77 µM.

For the molecule `O=C(Sc1cccc2cccnc12)c1ccccc1Br`, the concentration for half-maximal inhibition (IC50) is 5.44 µM.

For the molecule `O=C(O)[C@@H]1CCCN1C(=O)c1cnc2c(SSc3cccc4cc(C(=O)N5CCC[C@H]5C(=O)O)cnc34)cccc2c1`, the half-inhibitory concentration (IC50) was 5.4 µM.

As for `CC(C)(C)OC(=O)CCNC(=O)c1cnc2c(SSc3cccc4cc(C(=O)NCCC(=O)OC(C)(C)C)cnc34)cccc2c1`, the IC50 is 34.7 µM.

On to `O=C(Sc1cccc2cccnc12)c1cccc(Cl)c1`, for which the IC50 is 1.91 µM.

With `O=C(Sc1cccc2cccnc12)c1ccc(F)cc1F`, the IC50 result was “inactive”.

As to `CC[C@@H](C)[C@H](NC(=O)c1cnc2c(SSc3cccc4cc(C(=O)N[C@H](C(=O)O)[C@H](C)CC)cnc34)cccc2c1)C(=O)O`, the 50% inhibitory concentration (IC50) is 5.76 µM.

As for `COC(=O)[C@H](C)N(C)C(=O)c1cnc2c(SSc3cccc4cc(C(=O)N(C)[C@@H](C)C(=O)OC)cnc34)cccc2c1`, the IC50 is 8.63 µM.

As to `O=C(Sc1cccc2cccnc12)c1ccccc1F`, the IC50 was > 95 µM (inactive).

Take `Cc1ccccc1C(=O)Sc1cccc2cccnc12`: the IC50 is 20.8 µM.

Turning to `COC(=O)[C@H](C)NC(=O)c1ccnc2c(SSc3cccc4c(C(=O)N[C@@H](C)C(=O)OC)ccnc34)cccc12`, the IC50 is 16.8 µM.

Consider `O=C(Sc1cccc2cccnc12)c1ccccc1[N+](=O)[O-]`, for which the half-inhibitory concentration (IC50) is 8.24 µM.

`COC(=O)[C@H](CO)NC(=O)c1cnc2c(SSc3cccc4cc(C(=O)N[C@@H](CO)C(=O)OC)cnc34)cccc2c1`: the IC50 is 42.7 µM.

As to `COC(=O)[C@H](C)NC(=O)c1cnc2c(SSc3cccc4cc(C(=O)N[C@@H](C)C(=O)OC)cnc34)cccc2c1`, the 50% inhibitory concentration (IC50) was 15.4 µM.

`O=C(Sc1cccc2cccnc12)c1ccccc1OC(F)(F)F`: the IC50 is 9.48 µM.

For `O=C(Sc1cccc2cccnc12)c1cccc2ccccc12`, the IC50 is 8.9 µM.

For `COC(=O)[C@@H](NC(=O)c1cnc2c(SSc3cccc4cc(C(=O)N[C@H](C(=O)OC)C(C)C)cnc34)cccc2c1)C(C)C`, the IC50 is 7.62 µM.

As to `COC(=O)[C@H](CC(C)C)NC(=O)c1cnc2c(SSc3cccc4cc(C(=O)N[C@@H](CC(C)C)C(=O)OC)cnc34)cccc2c1`, the IC50 is 12.7 µM.

Turning to `CC(C)C[C@H](NC(=O)c1cnc2c(SSc3cccc4cc(C(=O)N[C@@H](CC(C)C)C(=O)O)cnc34)cccc2c1)C(=O)O`, the IC50 is 9.33 µM.

With `CCOc1ccccc1C(=O)Sc1cccc2cccnc12`, the IC50 was 9.27 µM and 34.4 µM.

As for `O=C(Sc1cccc2cccnc12)c1ccc2c(c1)OCO2`, the half-maximal inhibitory concentration (IC50) was 18.3 µM.

Take `COc1ccccc1C(=O)Sc1cccc2cccnc12`: the 50% inhibitory concentration (IC50) is 14.2 µM and 8.37 µM.

With `O=C(Sc1cccc2cccnc12)c1cccc(C(F)(F)F)c1`, the IC50 is > 95 µM (inactive).

On to `COc1ccc(C(=O)Sc2cccc3cccnc23)cc1OC`, for which the IC50 was 8.81 µM.

As for `O=C(Sc1cccc2cccnc12)c1ccccc1I`, the IC50 is 11.2 µM.
